According to PubChem BioAssay AID1963831 (Molecular Pharmacology Branch, DTP, NCI, 2024):

Tested on: 889142-216-R-J1-PDC complex spheroid viability
Experiment: Anticancer human tumor 889142-216-R-J1-PDC patient-derived bladder carcinoma cell line growth inhibition [POLQ]
Settings: for IC50: curve of first compound; for viability, T/C: stronger effect = lower value
Outline: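 Complex spheroid viability model combining PDC tumour cells with endothelial (HUVEC) and MSC stromal cells. Novobiocin, ART-558 or RP6685 were tested singly and in combination with standard and investigational anticancer drugs. Each was titrated in half-log steps from near clinical Cmax, or from 10 microM where Cmax was unknown.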

[1] = second compound 0.0316 µM, first compound 0.0316 µM
[2] = second compound 0.0316 µM, first compound 0.1 µM
[3] = second compound 0.0316 µM, first compound 0.316 µM
[4] = second compound 0.0316 µM, first compound 1 µM
[5] = second compound 0.0316 µM, first compound 3.16 µM
[6] = second compound 0.0316 µM, first compound 10 µM
[7] = second compound 0.1 µM, first compound 0.0316 µM
[8] = second compound 0.1 µM, first compound 0.1 µM
[9] = second compound 0.1 µM, first compound 0.316 µM
[10] = second compound 0.1 µM, first compound 1 µM
[11] = second compound 0.1 µM, first compound 3.16 µM
[12] = second compound 0.1 µM, first compound 10 µM
[13] = second compound 0.316 µM, first compound 0.0316 µM
[14] = second compound 0.316 µM, first compound 0.1 µM
[15] = second compound 0.316 µM, first compound 0.316 µM
[16] = second compound 0.316 µM, first compound 1 µM
[17] = second compound 0.316 µM, first compound 3.16 µM
[18] = second compound 0.316 µM, first compound 10 µM
[19] = second compound 1 µM, first compound 0.0316 µM
[20] = second compound 1 µM, first compound 0.1 µM
[21] = second compound 1 µM, first compound 0.316 µM
[22] = second compound 1 µM, first compound 1 µM
[23] = second compound 1 µM, first compound 3.16 µM
[24] = second compound 1 µM, first compound 10 µM
[25] = second compound 3.16 µM, first compound 0.0316 µM
[26] = second compound 3.16 µM, first compound 0.1 µM
[27] = second compound 3.16 µM, first compound 0.316 µM
[28] = second compound 3.16 µM, first compound 1 µM
[29] = second compound 3.16 µM, first compound 3.16 µM
[30] = second compound 3.16 µM, first compound 10 µM
[31] = second compound 10 µM, first compound 0.0316 µM
[32] = second compound 10 µM, first compound 0.1 µM
[33] = second compound 10 µM, first compound 0.316 µM
[34] = second compound 10 µM, first compound 1 µM
[35] = second compound 10 µM, first compound 3.16 µM
[36] = second compound 10 µM, first compound 10 µM
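Further: spheroids exposed to compounds for seven days.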
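Wherever viability, T/C is given: 100% = DMSO vehicle control viability.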

CC(C)n1c(=O)n(C)c2cnc3cc(F)c(-c4ccc(OCCCN5CCCCC5)nc4)cc3c21 + Cc1cccc(N(C)C(=O)C2C(O)CCN2c2nc(C)cc(C(F)(F)F)c2C#N)c1
IC50 (second compound 0.0316 µM): 3930 nM
IC50 (second compound 0.1 µM): 3630 nM
IC50 (second compound 0.316 µM): 3680 nM
IC50 (second compound 1 µM): 3730 nM
IC50 (second compound 3.16 µM): 4430 nM
IC50 (second compound 10 µM): 2190 nM
viability, T/C [1]: 83.1%
viability, T/C [2]: 75.4%
viability, T/C [3]: 89.5%
viability, T/C [4]: 84.4%
viability, T/C [5]: 58.1%
viability, T/C [6]: 14.7%
viability, T/C [7]: 87.9%
viability, T/C [8]: 78.6%
viability, T/C [9]: 77%
viability, T/C [10]: 66.8%
viability, T/C [11]: 59.3%
viability, T/C [12]: 15.5%
viability, T/C [13]: 88.9%
viability, T/C [14]: 82.6%
viability, T/C [15]: 70.3%
viability, T/C [16]: 81.6%
viability, T/C [17]: 55.6%
viability, T/C [18]: 12.8%
viability, T/C [19]: 75.5%
viability, T/C [20]: 97.5%
viability, T/C [21]: 101%
viability, T/C [22]: 75.9%
viability, T/C [23]: 57%
viability, T/C [24]: 15.5%
viability, T/C [25]: 80.6%
viability, T/C [26]: 87.9%
viability, T/C [27]: 77.5%
viability, T/C [28]: 98.9%
viability, T/C [29]: 65.5%
viability, T/C [30]: 12.7%
viability, T/C [31]: 70%
viability, T/C [32]: 66.3%
viability, T/C [33]: 68.5%
viability, T/C [34]: 52.7%
viability, T/C [35]: 49.5%
viability, T/C [36]: 12%

CC1COCCN1c1cc(-c2ccnn2C)c2ccnc(-c3ccn[nH]3)c2n1 (stereo not drawn) + Cc1cccc(N(C)C(=O)C2C(O)CCN2c2nc(C)cc(C(F)(F)F)c2C#N)c1
IC50 (second compound 0.0316 µM): 215 nM
IC50 (second compound 0.1 µM): 144 nM
IC50 (second compound 0.316 µM): 162 nM
IC50 (second compound 1 µM): 264 nM
IC50 (second compound 3.16 µM): 242 nM
IC50 (second compound 10 µM): 154 nM
viability, T/C [1]: 84.3%
viability, T/C [2]: 52.8%
viability, T/C [3]: 50.3%
viability, T/C [4]: 37.8%
viability, T/C [5]: 31.6%
viability, T/C [6]: 25.9%
viability, T/C [7]: 67.9%
viability, T/C [8]: 55%
viability, T/C [9]: 40.4%
viability, T/C [10]: 34.7%
viability, T/C [11]: 32.2%
viability, T/C [12]: 25.8%
viability, T/C [13]: 79.9%
viability, T/C [14]: 54%
viability, T/C [15]: 43.4%
viability, T/C [16]: 33.9%
viability, T/C [17]: 29.4%
viability, T/C [18]: 25.8%
viability, T/C [19]: 74.3%
viability, T/C [20]: 59.2%
viability, T/C [21]: 45.9%
viability, T/C [22]: 41.7%
viability, T/C [23]: 32.3%
viability, T/C [24]: 26.9%
viability, T/C [25]: 76.3%
viability, T/C [26]: 56.4%
viability, T/C [27]: 42.5%
viability, T/C [28]: 48.9%
viability, T/C [29]: 32.2%
viability, T/C [30]: 27.9%
viability, T/C [31]: 57.4%
viability, T/C [32]: 56.5%
viability, T/C [33]: 40.8%
viability, T/C [34]: 34.7%
viability, T/C [35]: 30.6%
viability, T/C [36]: 26.9%

COc1ccc([C@@H](O)c2cc(-c3ncnc4cc(N5CCOCC5)ccc34)c(F)cc2Cl)nn1 + Cc1cccc(N(C)C(=O)C2C(O)CCN2c2nc(C)cc(C(F)(F)F)c2C#N)c1
IC50 (second compound 0.0316 µM): 3760 nM
IC50 (second compound 0.1 µM): 2710 nM
IC50 (second compound 0.316 µM): 2260 nM
IC50 (second compound 1 µM): 2850 nM
IC50 (second compound 3.16 µM): 3890 nM
IC50 (second compound 10 µM): 1850 nM
viability, T/C [1]: 123%
viability, T/C [2]: 81.2%
viability, T/C [3]: 102%
viability, T/C [4]: 69.6%
viability, T/C [5]: 47.6%
viability, T/C [6]: 36.8%
viability, T/C [7]: 99.5%
viability, T/C [8]: 98.8%
viability, T/C [9]: 97.7%
viability, T/C [10]: 67.1%
viability, T/C [11]: 51.1%
viability, T/C [12]: 40.9%
viability, T/C [13]: 106%
viability, T/C [14]: 103%
viability, T/C [15]: 90.3%
viability, T/C [16]: 59.6%
viability, T/C [17]: 49.7%
viability, T/C [18]: 35.5%
viability, T/C [19]: 103%
viability, T/C [20]: 112%
viability, T/C [21]: 90.3%
viability, T/C [22]: 66.7%
viability, T/C [23]: 52.5%
viability, T/C [24]: 35.9%
viability, T/C [25]: 94.8%
viability, T/C [26]: 79.8%
viability, T/C [27]: 64.4%
viability, T/C [28]: 70%
viability, T/C [29]: 58.6%
viability, T/C [30]: 35.2%
viability, T/C [31]: 91.2%
viability, T/C [32]: 80.5%
viability, T/C [33]: 63.6%
viability, T/C [34]: 53.6%
viability, T/C [35]: 53.6%
viability, T/C [36]: 28.9%

Cn1ncnc1[C@H]1c2n[nH]c(=O)c3cc(F)cc(c23)N[C@@H]1c1ccc(F)cc1 + Cc1cccc(N(C)C(=O)C2C(O)CCN2c2nc(C)cc(C(F)(F)F)c2C#N)c1
IC50 (second compound 0.0316 µM): > 100 nM
IC50 (second compound 0.1 µM): > 100 nM
IC50 (second compound 0.316 µM): > 100 nM
IC50 (second compound 1 µM): > 100 nM
IC50 (second compound 3.16 µM): > 100 nM
IC50 (second compound 10 µM): > 100 nM
viability, T/C (second compound 0.0316 µM, first compound 0.000316 µM): 100%
viability, T/C (second compound 0.0316 µM, first compound 0.001 µM): 93.9%
viability, T/C (second compound 0.0316 µM, first compound 0.00316 µM): 132%
viability, T/C (second compound 0.0316 µM, first compound 0.01 µM): 74%
viability, T/C [1]: 85.1%
viability, T/C [2]: 67.8%
viability, T/C (second compound 0.1 µM, first compound 0.000316 µM): 128%
viability, T/C (second compound 0.1 µM, first compound 0.001 µM): 101%
viability, T/C (second compound 0.1 µM, first compound 0.00316 µM): 130%
viability, T/C (second compound 0.1 µM, first compound 0.01 µM): 104%
viability, T/C [7]: 87.9%
viability, T/C [8]: 71.3%
viability, T/C (second compound 0.316 µM, first compound 0.000316 µM): 109%
viability, T/C (second compound 0.316 µM, first compound 0.001 µM): 111%
viability, T/C (second compound 0.316 µM, first compound 0.00316 µM): 91.7%
viability, T/C (second compound 0.316 µM, first compound 0.01 µM): 93.1%
viability, T/C [13]: 80.4%
viability, T/C [14]: 65.5%
viability, T/C (second compound 1 µM, first compound 0.000316 µM): 97.5%
viability, T/C (second compound 1 µM, first compound 0.001 µM): 110%
viability, T/C (second compound 1 µM, first compound 0.00316 µM): 92%
viability, T/C (second compound 1 µM, first compound 0.01 µM): 92.9%
viability, T/C [19]: 81.9%
viability, T/C [20]: 72.9%
viability, T/C (second compound 3.16 µM, first compound 0.000316 µM): 109%
viability, T/C (second compound 3.16 µM, first compound 0.001 µM): 105%
viability, T/C (second compound 3.16 µM, first compound 0.00316 µM): 82.7%
viability, T/C (second compound 3.16 µM, first compound 0.01 µM): 73.6%
viability, T/C [25]: 75.5%
viability, T/C [26]: 73.4%
viability, T/C (second compound 10 µM, first compound 0.000316 µM): 83.8%
viability, T/C (second compound 10 µM, first compound 0.001 µM): 71.6%
viability, T/C (second compound 10 µM, first compound 0.00316 µM): 69.1%
viability, T/C (second compound 10 µM, first compound 0.01 µM): 77.1%
viability, T/C [31]: 81.5%
viability, T/C [32]: 62.5%
